These results are taken from ChEMBL document CHEMBL3507680, “University of Dundee, Gates Library screen for HepG2 cell viability”.

This series can be described thus: Human HepG2 cell viability assay in 384 well format. Particulars: HepG2 cells, read-out: Inhibition. Set-up: dose 125 nL, time 70.5 hour; cytotoxicity at 70.5 h: concentration not given beside the values. Type of series: toxicity, cell-based.
`COCCCNC(=O)CN1CCC(N2CCN(C)C2=O)CC1`: the cytotoxicity at 70.5 h was -10.4%.

Take `CCOCc1cc(CNC2CCCc3c2cnn3CC)ccc1OC` (stereo not drawn): the cytotoxicity at 70.5 h was -1.88%.

Consider `CCc1nnsc1C(=O)N1CCCC1c1c(C)nn(C)c1OC` (stereo not drawn), for which the cytotoxicity at 70.5 h came out at 13.9%.

`Cc1ccccc1CN(C)C(=O)CN1CCOC(Cn2cncn2)C1` (stereo not drawn): the cytotoxicity at 70.5 h is 1.73%.

For `COc1c(C)cnc(CN2CCOC(Cn3cncn3)C2)c1C` (stereo not drawn), the cytotoxicity at 70.5 h is -3.24%.

On to `CC1CN(Cc2ccc(-n3cccn3)cc2)CCO1` (stereo not drawn), for which the cytotoxicity at 70.5 h came out at 0.696%.

With `CS(=O)(=O)NCCCN1CCCC1c1cccc(Br)c1` (stereo not drawn), the cytotoxicity at 70.5 h was -9.99%.

As to `CCn1cc(CN2CCCN(C(=O)c3sc(C)nc3C)CC2)cn1`, the cytotoxicity at 70.5 h was determined as 4.77%.

Regarding `CCn1cc(CN2CCCN(C(=O)c3ccc(C#N)cc3)CC2)cn1`, the cytotoxicity at 70.5 h was -4.62%.

For `Cc1cnc(CN2CCCC2c2cnn(C)c2)cn1` (stereo not drawn), the cytotoxicity at 70.5 h was -10.3%.

For `CC(=O)c1cccc(S(=O)(=O)NCc2cccnc2N(C)C)c1`, the cytotoxicity at 70.5 h was -6.06%.

With `COc1ccc(NC(=O)N(C)Cc2ccsc2)cn1`, the cytotoxicity at 70.5 h is -3.11%.

As for `N#CC1(NC(=O)CN2CCC(c3ccnn3CCO)CC2)CCCC1`, the cytotoxicity at 70.5 h was -11.9%.

For `O=C(CN1CCC(c2ccnn2CCO)CC1)NC1CCCC1`, the cytotoxicity at 70.5 h is -3.63%.

`CCOc1cc(C)nc(N2CCN(C(=O)c3cn[nH]c3CC)CC2)n1`: the cytotoxicity at 70.5 h is -3.76%.

With `O=C(CN1CCCC1Cn1cncn1)NCCC1=CCCCC1` (stereo not drawn), the cytotoxicity at 70.5 h turned out to be 1.2%.

As to `Cn1cc(C2CCCN2Cc2csc(Cc3ccccc3)n2)cn1` (stereo not drawn), the cytotoxicity at 70.5 h was -8.68%.

In the case of `Cc1ccccc1-c1cc(C(=O)N2CCCC(n3ccnc3C)C2)[nH]n1` (stereo not drawn), the cytotoxicity at 70.5 h was determined as 13.3%.

On to `CCNc1cc2c(nn1)CCN(C(=O)CC1CCCC1)C2`, for which the cytotoxicity at 70.5 h was -5.46%.

For the compound `CN(Cc1cccc(F)c1)C(=O)CN1CCOC(Cn2cncn2)C1` (stereo not drawn), the cytotoxicity at 70.5 h is -0.78%.

As to `Cc1nccn1C1CCCN(C(=O)c2cnc[nH]2)C1` (stereo not drawn), the cytotoxicity at 70.5 h was -0.305%.

For `COc1c(C)cnc(CN2CCCC2Cn2nc(C)nc2C)c1C` (stereo not drawn), the cytotoxicity at 70.5 h was -3.93%.

Consider `CCn1cc(NC(=O)NCC(C)N2CCCC2)cn1` (stereo not drawn), for which the cytotoxicity at 70.5 h was found to be 22.1%.

As to `Cc1ccc(-c2nc(CN3CCCC3Cn3cncn3)cs2)o1` (stereo not drawn), the cytotoxicity at 70.5 h is -2.7%.

As for `c1csc(-c2nc(CN3CCCCC3Cn3cncn3)cs2)c1` (stereo not drawn), the cytotoxicity at 70.5 h is -14.9%.

In the case of `CNS(=O)(=O)CCCN1CCCC1c1noc(C)n1` (stereo not drawn), the cytotoxicity at 70.5 h was -3.7%.

As to `Cc1ccoc1-c1nnc(CN2CCOC(Cn3cccn3)C2)o1` (stereo not drawn), the cytotoxicity at 70.5 h was -2.97%.

As to `CCN1CCN(C2CCN(Cc3nc(CCOC)no3)CC2)C1=O`, the cytotoxicity at 70.5 h is -3.79%.

Take `COc1ccc(C(=O)N2CCCC(n3nc(C)nc3C)C2)c(OC)c1` (stereo not drawn): the cytotoxicity at 70.5 h worked out at 21.8%.

On to `CS(=O)(=O)CCN1CCCC1c1noc(C2CC2)n1` (stereo not drawn), for which the cytotoxicity at 70.5 h came out at 0.883%.

As to `Cn1c(NCC(O)c2ccc(Cl)cc2)c(C#N)c(=O)n(C)c1=O` (stereo not drawn), the cytotoxicity at 70.5 h was -4.06%.

For `Cn1c(NCC(O)c2ccccc2F)c(C#N)c(=O)n(C)c1=O` (stereo not drawn), the cytotoxicity at 70.5 h was -1.35%.

`CC(NC(=O)NCCCc1n[nH]c(N)c1C#N)c1ccccc1F` (stereo not drawn): the cytotoxicity at 70.5 h stood at 0.683%.

For `CC(NC(=O)NCCCc1n[nH]c(N)c1C#N)c1cccc(Cl)c1` (stereo not drawn), the cytotoxicity at 70.5 h is -4.21%.

As to `Cn1c(NCC(O)c2ccc(F)cc2)c(C#N)c(=O)n(C)c1=O` (stereo not drawn), the cytotoxicity at 70.5 h was -5.75%.

For the compound `CCN1CCN(C(C)CNC(=O)Nc2cnn(CC)c2)CC1` (stereo not drawn), the cytotoxicity at 70.5 h was -7.65%.

`CCn1cc(NC(=O)NCC(C)N(C)C)cn1` (stereo not drawn): the cytotoxicity at 70.5 h was determined as 18.2%.

Take `CC(C)N(CC(N)=O)Cc1csc(C(C)(C)C)n1`: the cytotoxicity at 70.5 h amounted to 3.87%.

On to `O=C1CC(N(C(=O)c2ccc(F)c(F)c2)C2CC2)C(=O)N1` (stereo not drawn), for which the cytotoxicity at 70.5 h was -9.51%.

As for `c1cnc(-c2nc(CN3CCCC3Cn3cncn3)cs2)nc1` (stereo not drawn), the cytotoxicity at 70.5 h is -5.35%.

As for `O=C1CC(N(C(=O)c2ccc(F)c(C(F)(F)F)c2)C2CC2)C(=O)N1` (stereo not drawn), the cytotoxicity at 70.5 h is 0.0677%.

Turning to `CCN1CCN(C2CCN(Cc3noc(C4CC4)n3)CC2)C1=O`, the cytotoxicity at 70.5 h is -3.61%.

Turning to `CC(C)(C)c1n[nH]c(C2CN(Cc3nnc(C4CCC4)o3)CCO2)n1` (stereo not drawn), the cytotoxicity at 70.5 h is -2.38%.

As to `Cc1nc(CN2CCCC(NCCOc3cccc(C#N)c3)C2)no1` (stereo not drawn), the cytotoxicity at 70.5 h was -2.71%.

With `Cc1nc(C)n(CC2CCCN(CCOc3ccc(C#N)cc3)C2)n1` (stereo not drawn), the cytotoxicity at 70.5 h is -11.5%.

For the compound `CC(C)c1noc(C(C)N2CCN(Cc3ccco3)CC2)n1` (stereo not drawn), the cytotoxicity at 70.5 h is -9.38%.

Regarding `Cc1ncc2c(n1)CN(CC(=O)Nc1nncs1)CC2`, the cytotoxicity at 70.5 h is -6.76%.

As for `CN(C)C(=O)CS(=O)(=O)Cc1cc(Cl)c2c(c1)OCO2`, the cytotoxicity at 70.5 h was -2.34%.

For the compound `Cc1nc(CN(Cc2cccs2)C2CCS(=O)(=O)C2)oc1C` (stereo not drawn), the cytotoxicity at 70.5 h was -16%.

With `CCc1nnc2n1CCN(C(=O)CN(C)Cc1ccccc1)C2`, the cytotoxicity at 70.5 h was -4.4%.

For the compound `CCNc1cc2c(nn1)CCN(C(=O)Cc1noc3ccccc13)C2`, the cytotoxicity at 70.5 h is -12.5%.

`CN(CC(=O)NC1(C#N)CCCC1)C1CCCN(c2cccnn2)C1` (stereo not drawn): the cytotoxicity at 70.5 h was -1.63%.

Consider `CCc1ccc(S(=O)(=O)Nc2cc(C(=O)O)c(F)cc2F)s1`, for which the cytotoxicity at 70.5 h is 26.3%.

For `Cc1nc(C2CCCN(C(=O)c3ccc(OCC4CC4)cc3)C2)no1` (stereo not drawn), the cytotoxicity at 70.5 h was 31%.

For the compound `Cc1cn2c(n1)CCC(NC(=O)CCn1cncn1)C2` (stereo not drawn), the cytotoxicity at 70.5 h was -8.43%.

With `CN(C)CC1CN(Cc2csc(C3CCCC3)n2)CCO1` (stereo not drawn), the cytotoxicity at 70.5 h was -12.3%.

Regarding `COCCN1CCC(CNC(=O)c2cc(C)cc(C)c2)C1` (stereo not drawn), the cytotoxicity at 70.5 h is -11.9%.

Consider `CCc1nc2n(n1)CC(NCc1noc(-c3ccccc3)n1)CC2` (stereo not drawn), for which the cytotoxicity at 70.5 h turned out to be 12.2%.

Regarding `O=C(c1cccn1Cc1cccs1)N1CCCC1Cn1cccn1` (stereo not drawn), the cytotoxicity at 70.5 h was -20.8%.

Turning to `OCCn1cc(CN2CCN(CCOCC(F)(F)F)CC2)cn1`, the cytotoxicity at 70.5 h worked out at 6.14%.

Turning to `CCc1nnc2n1CCN(Cc1ccc3c(c1)OCCO3)C2`, the cytotoxicity at 70.5 h worked out at 15.4%.

For `CN(Cc1cnn(C)c1)C(=O)NCc1csc(Br)c1`, the cytotoxicity at 70.5 h is 17.7%.

As for `CCc1nnc2n1CCN(Cc1ccc(C(=O)N3CCCC3)cc1)C2`, the cytotoxicity at 70.5 h is -25.8%.

As for `Cc1cc(C2CCCN(C(=O)CN3CCN(C)CC3)C2)n[nH]1` (stereo not drawn), the cytotoxicity at 70.5 h is -11.8%.

For the compound `Cc1ncsc1C(=O)NCc1cccs1`, the cytotoxicity at 70.5 h was -16.4%.

Turning to `Cn1cc(CCNC(=O)CCc2ccc3c(c2)OCO3)cn1`, the cytotoxicity at 70.5 h is -8.33%.

Turning to `CC(NC(=O)NCCCn1cncn1)c1ccc2c(c1)OCCO2` (stereo not drawn), the cytotoxicity at 70.5 h is -7.07%.

Consider `Cc1ccc(C(C)N(C)Cc2nc3c(cnn3C)c(=O)[nH]2)cc1` (stereo not drawn), for which the cytotoxicity at 70.5 h is -17.2%.

For `CC(c1ccco1)N(C)Cc1nc2c(cnn2C)c(=O)[nH]1` (stereo not drawn), the cytotoxicity at 70.5 h is -11.1%.

For the compound `CC(C(N)=O)N(C)CCCc1cc(-c2ccccc2)no1` (stereo not drawn), the cytotoxicity at 70.5 h was -2.88%.

As to `CS(=O)(=O)NC1CCN(C(=O)NCCNc2ccccn2)CC1`, the cytotoxicity at 70.5 h is 20.3%.

For the compound `CCOc1ncccc1NC(=O)N1CCN(c2cccc(C)c2C)CC1`, the cytotoxicity at 70.5 h came to 21.9%.

Consider `CC(=O)NCCNC(=O)N(C)Cc1ccc2c(c1)OCCO2`, for which the cytotoxicity at 70.5 h was -12%.

For `N#Cc1ccccc1OCCN1CCC(N2CCNC2=O)CC1`, the cytotoxicity at 70.5 h is -11.9%.

For the compound `O=C(CN1CCOC(Cn2cccn2)C1)Nc1nccs1` (stereo not drawn), the cytotoxicity at 70.5 h was -16.1%.

On to `COc1nc(C)cc(C)c1CNC(=O)N(C)Cc1cnn(C)c1`, for which the cytotoxicity at 70.5 h was -18%.

With `OCCn1cc(CN2CCN(CCOc3ccccc3)CC2)cn1`, the cytotoxicity at 70.5 h is -16%.

For the compound `Cc1cnn(CCNCc2ccc(C#N)cc2F)c1`, the cytotoxicity at 70.5 h was -13.7%.

In the case of `Cc1cnn(CCNCc2ccc(F)cc2Cl)c1`, the cytotoxicity at 70.5 h is -10.2%.

With `Cc1nn(C)c(C)c1C1CCCN1C(=O)c1ccc(NC2CC2)nc1` (stereo not drawn), the cytotoxicity at 70.5 h was -17.5%.

`CNc1nc(CNC(=O)Nc2cccc(F)c2)cs1`: the cytotoxicity at 70.5 h is -6.65%.

Take `COCCCN1CCCN(C(C)c2nc(C3CC3)no2)CC1` (stereo not drawn): the cytotoxicity at 70.5 h is -4.41%.

Regarding `O=C(CN1CCOC(Cn2cccn2)C1)NCc1cccs1` (stereo not drawn), the cytotoxicity at 70.5 h is -8.73%.

On to `Cc1nc(C2CCCN2Cc2nnc(C3CC3)o2)no1` (stereo not drawn), for which the cytotoxicity at 70.5 h turned out to be 0.406%.

On to `CS(=O)(=O)N1CCCN(C(=O)c2ccc(Cn3ccccc3=O)o2)CC1`, for which the cytotoxicity at 70.5 h was -7.8%.

Consider `COc1ccccc1CC(=O)N1CCC(NCc2cccnc2)CC1`, for which the cytotoxicity at 70.5 h worked out at 24%.

As for `Cc1nc(C2CCCN2Cc2nc(C)c(C)o2)no1` (stereo not drawn), the cytotoxicity at 70.5 h was -2.71%.

Consider `Cn1nccc1C1CCN(Cc2csc(-c3ncccn3)n2)CC1`, for which the cytotoxicity at 70.5 h is -5.7%.

On to `COCc1ccccc1CNc1nnc(C)c(C)c1C#N`, for which the cytotoxicity at 70.5 h is 21.2%.

In the case of `NC(=O)Cc1ccc(NC(=O)C2CCOCC2)cc1`, the cytotoxicity at 70.5 h was -3.85%.

Regarding `CSc1ccc(CNC(c2ccccc2)c2nccn2C)cc1` (stereo not drawn), the cytotoxicity at 70.5 h is -1.21%.

With `Cn1ccnc1C(NCc1csc(Br)c1)c1ccccc1` (stereo not drawn), the cytotoxicity at 70.5 h is -1.31%.

As to `CC(=O)NCCNC(=O)c1sc(-c2ccc(Cl)s2)nc1C`, the cytotoxicity at 70.5 h was found to be 28.8%.

For the compound `Cc1ncsc1C(=O)NCCn1nc2ccccn2c1=O`, the cytotoxicity at 70.5 h is -13.7%.

Take `c1cnc(-c2nc(CN3CCC(c4ccn[nH]4)CC3)cs2)nc1`: the cytotoxicity at 70.5 h came to 0.264%.

In the case of `CC(=O)N1CCCN(C(=O)c2csc(-c3ccc(C)cc3C)n2)CC1`, the cytotoxicity at 70.5 h is -4.64%.

For `O=C(NCc1ccccn1)Nc1cc(C(F)(F)F)c[nH]c1=O`, the cytotoxicity at 70.5 h was 9.08%.

As for `NC(=O)C1CCN(C(=O)c2ccn(-c3ccc(F)cc3)n2)C1` (stereo not drawn), the cytotoxicity at 70.5 h was -1.48%.

With `CC(=O)N1CCN(C(=O)NCc2csc(Br)c2)CC1`, the cytotoxicity at 70.5 h is -9.87%.

With `CCOc1cc(C)nc(N2CCN(C(=O)c3ccc[nH]3)CC2)n1`, the cytotoxicity at 70.5 h is -7.65%.

For `CC(C)CCOCCNC(=O)Nc1cc(C(F)(F)F)c[nH]c1=O`, the cytotoxicity at 70.5 h was -2.4%.

For `CCOC(=O)c1sc2ccsc2c1CNC(=O)CC`, the cytotoxicity at 70.5 h was -3.4%.

Consider `c1nc2n(n1)CC(NCc1nc(-c3ccsc3)no1)CC2` (stereo not drawn), for which the cytotoxicity at 70.5 h was -8.53%.
